# Source: ChEMBL document CHEMBL5241104, “Reactive metabolites of the anticonvulsant drugs and approaches to minimize the adverse drug reaction” (Eur J Med Chem, 2021)
# Assays:
# Mus musculus [1] = assay: Anticonvulsant activity in Swiss albino mouse assessed as protection against maximal electroshock induced seizure at ip administration; format: functional
# Mus musculus [2] = assay: Anticonvulsant activity in Swiss albino mouse brain assessed as increase in GABA level at 30 mg/kg,ip measured after 2 hrs of post-administration by spectrophotometric method; format: functional
# Mus musculus [3] = assay: Anticonvulsant activity in Swiss albino mouse assessed as protection against Sc-PTZ induced seizure at ip administration; format: functional
# [4] = Toxicity in Swiss albino mouse assessed as median toxicity dose at ip administration; format: organism-based; details: in vivo
# Mus musculus [5] = assay: Anticonvulsant activity in Swiss albino mouse brain assessed as increase in GABA level at 30 mg/kg,ip measured after 7 days of post-administration by spectrophotometric method; format: functional; details: time 7 day
# [6] = Toxicity in Swiss albino mouse assessed as lethality at 30 mg/kg,ip; format: organism-based; details: in vivo, read-out: Activity
# Rattus norvegicus [7] = assay: Anticonvulsant activity against maximal electroshock induced seizure in Wistar rat assessed as reduction of time spent in extension phase at 50 mg/kg,po administration; format: functional
# Rattus norvegicus [8] = assay: Anticonvulsant activity in Wistar rat assessed as protection against maximal electroshock induced seizure at po administration for 60 mins; format: functional; details: 1 h
# [9] = Toxicity in bicuculline induced Swiss mouse seizure model assessed as death at 50 mg/kg,ip administration for 30 mins; format: organism-based; details: in vivo, read-out: Activity
# Mus musculus [10] = assay: Anticonvulsant activity against 3-MP induced Swiss mouse seizure model assessed as inhibition of tonic seizures at 50 mg/kg,ip administration for 30 mins; format: functional; details: 0.5 h
# Mus musculus [11] = assay: Anticonvulsant activity against bicuculline induced Swiss mouse seizure model assessed as inhibition of tonic seizures at 50 mg/kg,ip administration for 30 mins; format: functional; details: 0.5 h
# Mus musculus [12] = assay: Anticonvulsant activity in Swiss mouse assessed as protection against Sc-PTZ induced seizure at ip administration; format: functional
# Mus musculus [13] = assay: Anticonvulsant activity against bicuculline induced Swiss mouse seizure model assessed as inhibition of clonic seizures at 50 mg/kg,ip administration for 30 mins; format: functional; details: 0.5 h
# Mus musculus [14] = assay: Anticonvulsant activity against 3-MP induced Swiss mouse seizure model assessed as inhibition of clonic seizures at 50 mg/kg,ip administration for 30 mins; format: functional; details: 0.5 h
# [15] = Toxicity in 3-MP induced Swiss mouse seizure model assessed as death at 50 mg/kg,ip administration for 30 mins; format: organism-based; details: in vivo, read-out: Activity
# [16] = Displacement of 3[H]BTX from rat brain membrane voltage-sensitive sodium channel incubated for 1.5 hrs by scintillation counting analysis; format: cell membranes
# Mus musculus [17] = assay: Anticonvulsant activity in Albino mouse brain assessed as increase in GABA level at 30 to 300 mg/kg,ip by spectrophotometric method; format: functional; details: dose 30-300 mg/kg
# Mus musculus [18] = assay: Anticonvulsant activity in mouse assessed as protection against maximal electroshock induced seizure at ip administration for 5 mins; format: functional
# Mus musculus [19] = assay: Anticonvulsant activity in mouse assessed as inhibition of maximal electroshock induced seizure at 200 mg/kg,po administration for 120 mins; format: functional; details: 2 h
# Mus musculus [20] = assay: Anticonvulsant activity in Albino mouse assessed as protection against Sc-PTZ induced seizure at ip administration; format: functional
# Mus musculus [21] = assay: Anticonvulsant activity in Albino mouse assessed as protection against maximal electroshock induced seizure at ip administration; format: functional
# [22] = Protective index, ratio of TD50 for toxicity in Albino mouse assessed as median neurotoxicity dose at ip administration by rotorod test to ED50 for anticonvulsant activity in Albino mouse assessed as protection against Sc-PTZ induced seizure at ip administration; format: organism-based; details: in vivo, read-out: Ratio TD50/ED50
# [23] = Protective index, ratio of TD50 for toxicity in Albino mouse assessed as median neurotoxicity dose at ip administration by rotorod test to ED50 for anticonvulsant activity in Albino mouse assessed as protection against maximal electroshock induced seizure at ip administration; format: organism-based; details: in vivo, read-out: Ratio TD50/ED50
# Mus musculus [24] = assay: Anticonvulsant activity in Swiss albino mouse assessed as inhibition of maximal electroshock induced seizure at ip administration; format: functional
# Rattus norvegicus [25] = assay: Anticonvulsant activity in Wistar rat assessed as protection against maximal electroshock induced seizure by measuring median effective dose at po administration; format: functional
# Rattus norvegicus [26] = species on record: Rattus norvegicus; assay: Inhibition of sodium uptake in rat cerebral cortical synaptosomes at 30 uM incubated for 30 mins by scintillation counting analysis; format: functional; details: Cerebral cortex, Synaptosome
# Rattus norvegicus [27] = assay: Anticonvulsant activity in Wistar rat assessed as protection against maximal electroshock induced seizure at po administration; format: functional
# Rattus norvegicus [28] = species on record: Rattus norvegicus; assay: Inhibition of sodium uptake in rat cerebral cortical synaptosomes at 300 uM incubated for 30 mins by scintillation counting analysis; format: functional; details: Cerebral cortex, Synaptosome
# [29] = Displacement of 3[H]BTX from rat cerebral cortical synaptosomes voltage-sensitive sodium channel incubated for 1.5 hrs by scintillation counting analysis; format: subcellular, Cerebral cortex, Synaptosome
# Rattus norvegicus [30] = species on record: Rattus norvegicus; assay: Inhibition of sodium uptake in rat cerebral cortical synaptosomes at 100 uM incubated for 30 mins by scintillation counting analysis; format: functional; details: Cerebral cortex, Synaptosome
# [31] = Protective index, ratio of TD50 for toxicity in Wistar rat assessed as median toxicity dose at po administration by rotorod test to ED50 for anticonvulsant activity in Wistar rat assessed as protection against maximal electroshock induced seizure at po administration; format: organism-based; details: in vivo, read-out: Ratio TD50/ED50
# Rattus norvegicus [32] = assay: Anticonvulsant activity against maximal electroshock induced seizure in Wistar albino rat assessed as reduction of time spent in extension phase at 10 mg/kg,ip administrated for 30 mins by electroconvulsive therapy; format: functional; design: scale not given: the % may be the effect or the level left; details: 0.5 h
# Rattus norvegicus [33] = assay: Anticonvulsant activity against maximal electroshock induced seizure in Wistar albino rat assessed as reduction of time spent in flexion phase at 10 mg/kg,ip administrated for 30 mins by electroconvulsive therapy; format: functional; design: scale not given: the % may be the effect or the level left; details: 0.5 h
# Rattus norvegicus [34] = assay: Anticonvulsant activity against maximal electroshock induced seizure in Wistar albino rat assessed as reduction of time spent in stupor phase at 10 mg/kg,ip administrated for 30 mins by electroconvulsive therapy; format: functional; design: scale not given: the % may be the effect or the level left; details: 0.5 h
# Rattus norvegicus [35] = assay: Anticonvulsant activity against maximal electroshock induced seizure in Wistar albino rat assessed as reduction of time spent in clonus phase at 10 mg/kg,ip administrated for 30 mins by electroconvulsive therapy; format: functional; design: scale not given: the % may be the effect or the level left; details: 0.5 h
# [36] = Protective index, ratio of TD50 for toxicity in Sc-PTZ induced Swiss albino mouse seizure model assessed as median neurotoxicity dose at po administration by rotorod test to ED50 for anticonvulsant activity in Swiss albino mouse assessed as protection against Sc-PTZ induced seizure at po administration; format: organism-based; details: in vivo, read-out: Ratio TD50/ED50
# Mus musculus [37] = assay: Anticonvulsant activity in Swiss albino mouse assessed as protection against Sc-PTZ induced seizure at po administration; format: functional
compound,measurement,setting,value
O=C1N=C(N2C(=S)N=C(c3ccc(F)cc3)CC2c2ccc(O)cc2)CNN1 (centres undefined),ED50,Mus musculus [1],22.5 mg/kg
same,Activity,Mus musculus [2],77.42 µg
same,ED50,Mus musculus [3],285 mg/kg
same,TD50,[4],389 mg/kg
same,Activity,Mus musculus [5],78.96 µg
O=C1Nc2ccccc2C12Nc1ccccc1-c1nc(=O)c(-c3ccccc3)nn12 (centres undefined),mortality,[6],30%
COc1ccc(C2CC(c3ccc(Cl)cc3)=Nc3ccccc3N2)cc1 (centres undefined),Time,Rattus norvegicus [7],8.5 s
same,Activity,Rattus norvegicus [8],52%
NC(=O)N1c2ccccc2C=Cc2ccccc21 [CARBAMAZEPINE],mortality at 0.5 h,[9],40%
same,inhibition in vivo at 50 mg/kg,Mus musculus [10],0%
same,inhibition in vivo at 50 mg/kg,Mus musculus [11],0%
same,ED50,Mus musculus [12],> 100 mg/kg
same,inhibition in vivo at 50 mg/kg,Mus musculus [13],100%
same,inhibition in vivo at 50 mg/kg,Mus musculus [14],80%
same,mortality at 0.5 h,[15],90%
NC(=O)N1c2ccccc2CC([N+](=O)[O-])c2ccccc21 (centres undefined),IC50,[16],2.29 mM
CN1C(=O)CC(=O)N(c2ccccc2)c2cc(Cl)ccc21 [CLOBAZAM],Activity,Mus musculus [17],54.9 mg
O=C(NC1CCCCC1)C(c1ccc(F)cc1)N1Cc2cnnn2-c2ccccc2C1=O (centres undefined),Activity,Mus musculus [18],87.5%
CC1(C)O[C@H]2CO[C@]3(COS(=O)(=O)N=[N+]=[N-])OC(C)(C)OC3[C@H]2O1 (some centres undefined),inhibition in vivo at 200 mg/kg,Mus musculus [19],≥ 80%
CNS(=O)(=O)OC[C@]12OC[C@@H]3OC(C)(C)O[C@@H]3C1OC(C)(C)O2 (some centres undefined),inhibition in vivo at 200 mg/kg,Mus musculus [19],≥ 80%
CN(C)c1ccc(/C=N/Nc2nnc(-c3ccccc3)nc2Cc2ccc(Cl)cc2)cc1,ED50,Mus musculus [20],83.9 mg/kg
same,ED50,Mus musculus [21],46 mg/kg
same,selectivity ratio,[22],4.29
same,selectivity ratio,[23],7.82
same,Activity,Mus musculus [17],37.3 mg
CCOc1cc(/C=C2/N=C(c3ccccc3)c3cc([N+](=O)[O-])ccc3NC2=O)ccc1O,inhibition (INH),Mus musculus [24],75%
COc1ccc(/C=C2/N=C(c3ccccc3)c3cc([N+](=O)[O-])ccc3NC2=O)cc1O,inhibition (INH),Mus musculus [24],70%
CC(=O)O[C@@H]1Cc2ccccc2N(C(N)=O)c2ccccc21,ED50,Rattus norvegicus [25],4.7 mg/kg
same,inhibition,Rattus norvegicus [26],17.9%
same,Activity,Rattus norvegicus [27],5.9%
same,inhibition,Rattus norvegicus [28],73.2%
same,IC50,[29],141 µM
same,inhibition,Rattus norvegicus [30],57.7%
same,selectivity ratio,[31],> 91.7
CN1C(=O)CN=C(c2ccccc2)c2cc(Cl)ccc21 [DIAZEPAM],Activity,Mus musculus [18],87.5%
COc1cc(/C=C2/N=C(c3ccccc3)c3cc([N+](=O)[O-])ccc3NC2=O)ccc1O,inhibition (INH),Mus musculus [24],71%
O=C1/C(=N\c2nnc(-c3cccc(Cl)c3Cl)c(/N=C3\C(=O)N(CN4CCOCC4)c4ccc(Cl)cc43)n2)c2cc(Cl)ccc2N1CN1CCOCC1,Activity,Rattus norvegicus [32],48.95%
same,Activity,Rattus norvegicus [33],30.39%
same,Activity,Rattus norvegicus [34],34.16%
same,Activity,Rattus norvegicus [35],40.55%
C=CCC(CC(C)C)C(=O)O (racemic),selectivity ratio,[36],3.2
CCC(=O)CCCCCN1C(=O)NC2(C1=O)c1ccccc1-c1ccccc12,Activity,Mus musculus [37],100%
CC(=O)OC1Cc2ccccc2N(C(N)=O)c2ccccc21 (centres undefined),inhibition,Rattus norvegicus [26],42.2%
same,Activity,Rattus norvegicus [27],54.4%
same,inhibition,Rattus norvegicus [28],82.1%
same,IC50,[29],138 µM
same,inhibition,Rattus norvegicus [30],61.8%
COc1cc(C2CC(c3ccc(O)cc3)=NC(=S)N2C2=NC(=O)NNC2)ccc1O (centres undefined),ED50,Mus musculus [1],29.4 mg/kg
same,Activity,Mus musculus [2],86.17 µg
same,ED50,Mus musculus [3],293 mg/kg
same,TD50,[4],412 mg/kg
same,Activity,Mus musculus [5],91.47 µg
CCCC(CCC)C(=O)[O-].[Na+] [VALPROATE SODIUM],ED50,Mus musculus [12],149 mg/kg
same,Activity,Mus musculus [37],83%
